pEC50: −log10 of the molar value. “And” between values parts separate entries of the source, which are not always exact repeats. Equal values may be shown once.
How the values were obtained:
[1] = target: T1, NLuc-PRMT5 co-expressed with WDR77 in HCT116 MTAP wild-type cells (Homo sapiens, UniProt O14744); assay: Live-cell NanoBRET target engagement in HCT116 MTAP wild-type cells (NLuc-PRMT5 + WDR77); format: cell-based; conditions: for BRET, CBH-002 + DMSO: Fig 5A, Log([CBH-002]); for normalized BRET, CBH-002 + DMSO (Figure S6C) / normalized BRET, CBH-002 + GSK3326595 (Figure S6C): log([CBH-002])
T1 construct: Horizon Discovery (cells) #PAR-034 and #R02-033 (cells); host or cells: HCT116 MTAP wild-type / MTAP-/-
Method: HEK293 cells (ATCC) were cultured in DMEM (Thermo Fisher) + 10% (v/v) FBS (Seredigm), and HCT116 cells (Horizon Discovery, #PAR-034 and #R02-033) were cultured in McCoy’s 5A (Thermo Fisher) + 10% FBS, with incubation in a humidified, 37 °C/5% CO2 incubator. Cells were split 1–3 days prior to performing experiments and used at roughly 80% confluency. […] Cells were transfected according to the manufacturer’s protocol using FuGENE HD (Promega). NanoLuc fusion DNA was diluted into Transfection Carrier DNA (Promega) in Opti-MEM at a ratio of 1:9 (mass/mass), and FuGENE HD was added at a ratio of 1:3 (μg DNA:μL lipid). […] Formed complexes were combined with cells resuspended to a density of 2 × 10^5 cells/mL in Opti-MEM + 1% FBS at a ratio of 1:20 (vol:vol). […] Cells were seeded at a density of 2 × 10^5 cells/mL in Opti-MEM + 1% FBS in 100 μL (96-well). The BRET probe CBH-002 was prepared first as a 100× stock in 100% DMSO (Sigma) and then diluted to a 20× stock in NanoBRET Tracer Dilution buffer (Promega). Test compounds were prepared as 1000× stocks in 100% DMSO and diluted to 10× stocks in Opti-MEM to prepare working stocks. […] NanoBRET Complete 3x Substrate was prepared by combining Nano-Glo Substrate and Extracellular NanoLuc Inhibitor in Opti-MEM, according to the manufacturer’s protocol (Promega).
EC50 values were obtained by fitting the BRET probe and compound affinity curves to a sigmoidal four-parameter fit model in Graphpad Prism:1 Y=Ymin+Ymax−Ymin/1+10^LogEC50−Xh where h is the Hill Slope.
When normalized BRET was used, mBRET values were normalized using2 NormalizedBRET%=(Y−BRETmin)/BRETmax−BRETmin where y = mBRET in the presence of test compound and BRET probe, BRETmin = mBRET at the highest concentration (saturating) of test compound and BRET probe, and BRETmax = mBRET in the presence of vehicle (DMSO) and BRET probe.
Normalized concentration-response curves showing full competition were fit using a 2-parameter model:3 Y=100/1+10^LogEC50−Xh
In situations where only partial competition was observed, the normalized concentration-response curves were fit using Eq. 1 and where Ymin was constrained to >0.

NLuc-PRMT5 = NLuc-PRMT5 (Homo sapiens, UniProt O14744); assay: BRET probe CBH-002 binding kinetics (association, dissociation by GSK3326595) in live HEK293 cells; format: cell-based; set-up: host or cells: HEK293 (live cells; digitonin lysate for the SAM titration); Tracer association (Figure S3C): unit not given here
Method: To determine BRET probe binding kinetics, live HEK293 cells were treated with 30 nM CBH-002 and BRET measurements were read in 3 min intervals for 2 h at room temperature.

Chain of NLuc-PRMT5 (O14744 whole entry): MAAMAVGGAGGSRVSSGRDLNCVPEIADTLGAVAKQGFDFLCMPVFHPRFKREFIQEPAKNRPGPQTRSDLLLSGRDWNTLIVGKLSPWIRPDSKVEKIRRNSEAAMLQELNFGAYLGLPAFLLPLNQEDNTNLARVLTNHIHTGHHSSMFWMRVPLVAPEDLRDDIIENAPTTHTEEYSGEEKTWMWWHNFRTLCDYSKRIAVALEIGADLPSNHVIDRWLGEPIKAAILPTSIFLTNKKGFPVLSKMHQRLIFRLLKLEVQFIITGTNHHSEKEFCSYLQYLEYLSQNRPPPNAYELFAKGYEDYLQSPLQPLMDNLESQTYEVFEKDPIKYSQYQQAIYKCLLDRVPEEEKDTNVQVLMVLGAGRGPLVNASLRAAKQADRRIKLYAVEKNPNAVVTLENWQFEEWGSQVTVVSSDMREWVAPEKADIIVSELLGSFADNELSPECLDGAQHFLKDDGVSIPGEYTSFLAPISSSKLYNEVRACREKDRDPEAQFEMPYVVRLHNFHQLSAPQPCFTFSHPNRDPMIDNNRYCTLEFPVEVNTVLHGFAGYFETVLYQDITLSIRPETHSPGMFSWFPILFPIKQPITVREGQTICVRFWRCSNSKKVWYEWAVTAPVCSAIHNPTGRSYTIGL
Chain of NLuc-PRMT5 (Q9BQA1 whole entry partner): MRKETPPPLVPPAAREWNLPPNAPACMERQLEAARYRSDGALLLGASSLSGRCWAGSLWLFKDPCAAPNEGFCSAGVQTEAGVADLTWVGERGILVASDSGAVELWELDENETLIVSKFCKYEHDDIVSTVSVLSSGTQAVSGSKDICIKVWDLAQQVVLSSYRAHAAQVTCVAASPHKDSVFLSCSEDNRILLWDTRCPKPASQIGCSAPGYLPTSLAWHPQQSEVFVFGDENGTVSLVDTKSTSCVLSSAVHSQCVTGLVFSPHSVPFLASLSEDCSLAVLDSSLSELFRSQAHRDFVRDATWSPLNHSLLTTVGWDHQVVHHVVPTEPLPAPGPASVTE
T1 sequence (O14744 whole entry): as the sequence (O14744 whole entry) above
T1 sequence (Q9BQA1 whole entry partner): as the sequence (Q9BQA1 whole entry partner) above

O=C(CCc1ccc2n1[B-](F)(F)[N+]1=C(c3ccc[nH]3)C=CC1=C2)NCCCCC(=O)N1CCC(Nc2cc(C(=O)NC[C@H](O)CN3CCc4ccccc4C3)ncn2)CC1 [CBH-002]
BRET, CBH-002 + DMSO ([1]; uM -0.60): 403 and 799.01 and 758.47 | BRET, CBH-002 + DMSO ([1]; uM -0.90): 393 and 766.11 and 738.99 | BRET, CBH-002 + DMSO ([1]; uM -1.20): 378 and 710.21 and 697.93 | BRET, CBH-002 + DMSO ([1]; uM -1.51): 362 and 618.54 and 616.68 | BRET, CBH-002 + DMSO ([1]; uM -1.81): 323 | BRET, CBH-002 + DMSO ([1]; uM -2.71): 68.8 and 69.23 and 65.71 | pEC50 ([1]; HCT116 wild-type cells, WDR77 co-expression, read-out: CBH-002 apparent affinity (EC50)): 7.92 | normalized BRET, CBH-002 + DMSO (Figure S6C) ([1]; uM = -0.60): 100 | normalized BRET, CBH-002 + GSK3326595 (Figure S6C) ([1]; uM = -0.60): 12.6717 and 16.8431 and 16.7636 | normalized BRET, CBH-002 + DMSO (Figure S6C) ([1]; uM = -0.90): 97.4927 and 95.8339 and 97.4011 | normalized BRET, CBH-002 + GSK3326595 (Figure S6C) ([1]; uM = -0.90): 9.237 and 13.3988 and 13.2855 | normalized BRET, CBH-002 + DMSO (Figure S6C) ([1]; uM = -1.20): 93.7318 and 88.7552 and 91.9231 | normalized BRET, CBH-002 + GSK3326595 (Figure S6C) ([1]; uM = -1.20): 5.8269 and 8.083 and 8.045 | normalized BRET, CBH-002 + DMSO (Figure S6C) ([1]; uM = -1.51): 89.7202 and 77.147 and 81.0831 | normalized BRET, CBH-002 + GSK3326595 (Figure S6C) ([1]; uM = -1.51): 3.295 and 4.174 and 4.336 | normalized BRET, CBH-002 + DMSO (Figure S6C) ([1]; uM = -1.81): 79.9418 and 55.2096 and 56.8522 | normalized BRET, CBH-002 + GSK3326595 (Figure S6C) ([1]; uM = -1.81): 1.59 and 1.874 and 2.064 | normalized BRET, CBH-002 + DMSO (Figure S6C) ([1]; uM = -2.11): 57.6271 and 32.8998 and 32.0743 | normalized BRET, CBH-002 + GSK3326595 (Figure S6C) ([1]; uM = -2.11): 0.7121 and 0.8016 and 0.8965 | normalized BRET, CBH-002 + DMSO (Figure S6C) ([1]; uM = -2.41): 31.5515 and 15.8288 and 15.9084 | normalized BRET, CBH-002 + GSK3326595 (Figure S6C) ([1]; uM = -2.41): 0.2206 and 0.2381 and 0.3149 | normalized BRET, CBH-002 + GSK3326595 (Figure S6C) ([1]; uM = -2.71): 0 | Tracer association (Figure S3C) (NLuc-PRMT5; Time (min) -27): 84.20 and 89.90 and 88.10 and 83.20 | Tracer association (Figure S3C) (NLuc-PRMT5; Time (min) -30): 82.70 and 89.80 and 85.50 and 82.10 | Tracer association (Figure S3C) (NLuc-PRMT5; Time (min) -33): 82.30 and 86.20 and 84.70 and 81.40 | Tracer association (Figure S3C) (NLuc-PRMT5; Time (min) -36): 79.10 and 84.40 and 82.30 and 79.90 | Tracer association (Figure S3C) (NLuc-PRMT5; Time (min) -39): 78.00 and 83.20 and 80.40 and 77.80 | Tracer association (Figure S3C) (NLuc-PRMT5; Time (min) -42): 74.70 and 81.80 and 78.20 and 76.90 | Tracer association (Figure S3C) (NLuc-PRMT5; Time (min) -45): 72.40 and 79.70 and 77.50 and 73.60 | Tracer association (Figure S3C) (NLuc-PRMT5; Time (min) -48): 71.50 and 77.50 and 73.90 and 72.30 | Tracer association (Figure S3C) (NLuc-PRMT5; Time (min) -51): 70.80 and 74.30 and 71.70 and 69.80 | Tracer association (Figure S3C) (NLuc-PRMT5; Time (min) -54): 67.60 and 72.60 and 69.10 and 66.30 | Tracer association (Figure S3C) (NLuc-PRMT5; Time (min) -57): 64.20 and 69.60 and 66.90 and 64.40 | Tracer association (Figure S3C) (NLuc-PRMT5; Time (min) -60): 62.40 and 67.20 and 64.20 and 62.00 | Tracer association (Figure S3C) (NLuc-PRMT5; Time (min) -63): 58.70 and 64.40 and 60.70 and 59.40 | Tracer association (Figure S3C) (NLuc-PRMT5; Time (min) -66): 56.10 and 60.10 and 57.50 | Tracer association (Figure S3C) (NLuc-PRMT5; Time (min) -69): 53.40 and 56.10 and 54.60 and 53.80 | Tracer association (Figure S3C) (NLuc-PRMT5; Time (min) -72): 50.10 and 53.80 and 51.80 | Tracer association (Figure S3C) (NLuc-PRMT5; Time (min) -75): 46.70 and 49.90 and 47.90 and 46.40 | Tracer association (Figure S3C) (NLuc-PRMT5; Time (min) -78): 43.20 and 46.00 and 44.30 and 42.50 | Tracer association (Figure S3C) (NLuc-PRMT5; Time (min) -81): 39.30 and 42.30 and 40.80 and 39.10 | Tracer association (Figure S3C) (NLuc-PRMT5; Time (min) -84): 36.10 and 38.40 and 35.80 | Tracer association (Figure S3C) (NLuc-PRMT5; Time (min) -87): 31.70 and 33.50 and 32.20 and 31.50 | Tracer association (Figure S3C) (NLuc-PRMT5; Time (min) -90): 27.90 and 29.40 and 28.10 and 27.70 | Tracer association (Figure S3C) (NLuc-PRMT5; Time (min) -93): 22.90 and 24.80 and 24.00 and 23.50 | Tracer association (Figure S3C) (NLuc-PRMT5; Time (min) -96): 18.60 and 20.70 and 19.20 | Tracer association (Figure S3C) (NLuc-PRMT5; Time (min) -99): 13.20 and 15.60 and 14.50 | Tracer association (Figure S3C) (NLuc-PRMT5; Time (min) -102): 7.40 and 9.50 and 8.80 and 9.10 | Time for BRET biosensor to reach equilibrium (NLuc-PRMT5; live cells, room temperature, 30 nM CBH-002): ~ 2 h
